Source: article PMC8380238, “Structure-based virtual screening of CYP1A1 inhibitors: towards rapid tier-one assessment of potential developmental toxicants” (Archives of Toxicology, 2021)
Where a name gives a salt, the structure may show the parent alone. Read-outs that look alike come from different tables or passages of the source.

Key:
human CYP1A1 = tested on: human CYP1A1; design: unit not given beside the values; details: cited from earlier work
[1] = target: T1, human recombinant CYP1A1 (rCYP1A1) (Homo sapiens, UniProt P04798); assay: CYP1A1 activity assay: inhibition of CEC metabolism (IC50)
T1 sequence (P04798 1-512): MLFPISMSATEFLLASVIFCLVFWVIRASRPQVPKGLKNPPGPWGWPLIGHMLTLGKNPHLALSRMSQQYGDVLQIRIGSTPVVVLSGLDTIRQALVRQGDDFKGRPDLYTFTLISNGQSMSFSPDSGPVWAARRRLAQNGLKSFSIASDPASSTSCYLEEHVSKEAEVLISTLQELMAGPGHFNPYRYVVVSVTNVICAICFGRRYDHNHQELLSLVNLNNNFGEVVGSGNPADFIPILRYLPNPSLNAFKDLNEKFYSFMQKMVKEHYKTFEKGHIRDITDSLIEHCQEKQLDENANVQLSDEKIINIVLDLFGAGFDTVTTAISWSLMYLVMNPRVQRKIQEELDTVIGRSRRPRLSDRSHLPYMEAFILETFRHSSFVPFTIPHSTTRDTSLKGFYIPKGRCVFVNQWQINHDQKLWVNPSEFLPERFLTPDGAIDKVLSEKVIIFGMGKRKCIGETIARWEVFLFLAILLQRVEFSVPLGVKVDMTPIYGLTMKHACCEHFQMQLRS

[2] = target: T1, human recombinant CYP1A1 (rCYP1A1); assay: CYP1A1 activity assay repeated at six CEC concentrations (Ki, α, mode of inhibition)
[3] = target: T1, human recombinant CYP1A1 (rCYP1A1)
[4] = CYP1A1 IC50 (range of colour key, Fig. 5a)

Compound	AC50 (human CYP1A1)	other results
Oc1ccc(C(c2ccc(O)cc2)C(Cl)(Cl)Cl)cc1	0.8687	
C=CCc1cc(S(=O)(=O)c2ccc(O)c(CC=C)c2)ccc1O	0.2892	
O=c1[nH]sc2ccccc12 [1,2-Benzisothiazolin-3-one]	0.7251	
Nc1cccc2c(N)cccc12 [1,5-Naphthalenediamine]	0.8388	
Oc1ccc2ccc3cccc4ccc1c2c34 [1-Hydroxypyrene]	0.4188	
Cc1cc(N=Nc2ccccc2C)ccc1N [2-Amino-5-azotoluene]	0.8236	
Sc1nc2ccccc2s1 [2-Mercaptobenzothiazole]	-0.7864	
COc1cc(-c2ccc(N)c(OC)c2)ccc1N [3,3'-Dimethoxybenzidine]	0.5453	
Oc1ccc2c(c1)-c1ccccc1C2 [3-Hydroxyfluorene]	0.7484	
CN(C)c1ccc(Cc2ccc(N(C)C)cc2)cc1 [4,4'-Methylenebis(N,N-dimethylaniline)]	0.5763	
CCCCCCCCn1sc(Cl)c(Cl)c1=O [4,5-Dichloro-2-octyl-3(2H)-isothiazolone]	0.9038	
Oc1cc2ccccc2c2ccccc12 [9-Phenanthrol]	0.7409	
CSC(C)(C)C=NO [Aldicarb oxime]	0.7517	
CC(C)(C#N)c1cc(Cn2cncn2)cc(C(C)(C)C#N)c1 [Anastrozole, reference compound]		IC50 [1, 4]: 100 to 1000 µM; IC50 ([1]; IC50): 190 µM
CCNc1nc(Cl)nc(NC(C)C)n1 [Atrazine]	0.9162	
COP(=S)(OC)SCn1nnc2ccccc2c1=O [Azinphos-methyl]	-0.4803	
O=C(Nc1ccccc1)c1ccccc1I [Benodanil]	-1.884	
Nc1ccc(-c2ccc(N)cc2)cc1 [Benzidine]	0.5505	
CC(O)(CS(=O)(=O)c1ccc(F)cc1)C(=O)Nc1ccc(C#N)c(C(F)(F)F)c1 (stereo not shown) [Bicalutamide, reference compound]		IC50 [1, 4]: 10 to 100 µM; IC50 ([1]; IC50): 14 µM; Ki ([2]; CYP1A1 Ki (range of colour key, Fig. 5b)): 1 to 10 µM; Ki ([2]; Ki): 6.6 µM; MOI (mode of inhibition) [3]: Mixed
COc1ccc(-c2ccccc2)cc1NNC(=O)OC(C)C [Bifenazate]	-0.1841	
CC(C)(c1ccc(O)cc1)c1ccc(O)cc1 [Bisphenol A]		IC50 [1, 4]: 1 to 10 µM; IC50 ([1]; IC50): 2.4 µM; α (degree to which the binding of inhibitor changes the affinity of the enzyme for substrate) [2]: 9.1; Ki ([2]; Ki): 0.53 µM; MOI (mode of inhibition) [3]: Competitive
O=[N+]([O-])C(Br)(CO)CO [Bronopol]	0.9179	
CC(C)(O)c1coc(S(=O)(=O)NC(=O)Nc2c3c(cc4c2CCC4)CCC3)c1 [CP-456773]	-1.144	
CCCCN(CCCC)SN(C)C(=O)Oc1cccc2c1OC(C)(C)C2 [Carbosulfan]	0.7573	

Compound	AC50 (human CYP1A1)	other results
CCOC(=O)C(Cl)Cc1cc(-n2nc(C)n(C(F)F)c2=O)c(F)cc1Cl (stereo not shown) [Carfentrazone-ethyl]	0.8125	
CN(C)CCCN1c2ccccc2Sc2ccc(Cl)cc21 [Chlorpromazine hydrochloride]	0.7565	
COC(=O)c1c(Cl)c(Cl)c(C(=O)OC)c(Cl)c1Cl [Chlorthal-dimethyl]		AC50 (human CYP1A1; ToxCast NVS_ADME_hCYP1A1, NA cells left out, ref ToxCast): -0.9489
C#CCOC(=O)[C@@H](C)Oc1ccc(Oc2ncc(Cl)cc2F)cc1 [Clodinafop-propargyl]	0.4557	
CCOP(=S)(OCC)Oc1ccc2c(C)c(Cl)c(=O)oc2c1 [Coumaphos]	-0.5619	
CC(=O)O[C@]1(C(C)=O)CC[C@H]2[C@@H]3C=C(Cl)C4=CC(=O)[C@@H]5C[C@@H]5[C@]4(C)[C@H]3CC[C@@]21C [Cyproterone acetate, reference compound]		IC50 [1, 4]: 1 to 10 µM; IC50 ([1]; IC50): 9.9 µM; α (degree to which the binding of inhibitor changes the affinity of the enzyme for substrate) [2]: 7; Ki ([2]; CYP1A1 Ki (range of colour key, Fig. 5b), range assigned by colour of the point): 1 to 10 µM; Ki ([2]; Ki, CEC 1.56-50.0 µM): 8.8 µM; MOI (mode of inhibition) [3]: Competitive
C[C@]12CC[C@H](O)CC1=CC[C@@H]1[C@@H]2CC[C@]2(C)C(=O)CC[C@@H]12 [DHEA, dehydroepiandrosterone]		IC50 [1, 4]: 100 to 1000 µM; IC50 ([1]; IC50): 130 µM
CC1COC(Cn2cncn2)(c2ccc(Oc3ccc(Cl)cc3)cc2Cl)O1 (stereo not shown) [Difenoconazole]	0.1639	
COc1ccc(C(=CC(=O)N2CCOCC2)c2ccc(Cl)cc2)cc1OC [Dimethomorph]	0.8349	
C[C@]12CC[C@@H]3c4ccc(O)cc4CC[C@H]3[C@@H]1[C@@H](O)[C@@H](O)[C@@H]2O [Estetrol]		IC50 ([1]; CYP1A1 IC50 (range of colour key, Fig. 5a), 5 µM CEC, range assigned by colour of the point): 100 to 1000 µM; IC50 ([1]; IC50, 5 µM CEC, maximum tested concentration 200 µM (ketoconazole 20 µM), ∞ = the best fitted model was the constant model): > 200 µM
Cc1[nH]cnc1C[C@H]1CCc2c(C)c3ccccc3n2C1=O.Cl [Fabesetron hydrochloride]	0.583	
CCOP(=O)(NC(C)C)Oc1ccc(SC)c(C)c1 (stereo not shown) [Fenamiphos]	0.6838	
OC(c1ccc(Cl)cc1)(c1cncnc1)c1ccccc1Cl (stereo not shown) [Fenarimol]	0.89	
N#CC(CCc1ccc(Cl)cc1)(Cn1cncn1)c1ccccc1 (stereo not shown) [Fenbuconazole]	-0.05845	
O=C(Nc1ccccc1)Nc1ccnc(Cl)c1 [Forchlorfenuron]	0.9909	
CN(C)c1ccc(C(=C2C=CC(=[N+](C)C)C=C2)c2ccc(N(C)C)cc2)cc1 [Gentian Violet]	0.2591	
C=CCOC(Cn1ccnc1)c1ccc(Cl)cc1Cl (stereo not shown) [Imazalil]	0.1501	
CC(C)NC(=O)N1CC(=O)N(c2cc(Cl)cc(Cl)c2)C1=O [Iprodione]	0.8242	
CON(C)C(=O)Nc1ccc(Cl)c(Cl)c1 [Linuron]	0.4776	
CCOC(=O)CC(SP(=S)(OC)OC)C(=O)OCC (stereo not shown) [Malathion]	0.4737	
CC#Cc1cc(C)nc(Nc2ccccc2)n1 [Mepanipyrim]	-0.2464	
COc1nn(CSP(=S)(OC)OC)c(=O)s1 [Methidathion]	0.6887	
COP(=S)(OC)Oc1ccc([N+](=O)[O-])cc1 [Methyl parathion]	0.8544	
CNc1cnn(-c2cccc(C(F)(F)F)c2)c(=O)c1Cl [Norflurazon]	0.8239	

Compound	AC50 (human CYP1A1)	other results
CCOP(=S)(OCC)Oc1ccc([N+](=O)[O-])cc1 [Parathion]	0.5508	
O=[N+]([O-])c1c(Cl)c(Cl)c(Cl)c(Cl)c1Cl [Pentachloronitrobenzene]	-0.9415	
CCOP(=S)(OCC)SCSCC [Phorate]	0.6456	
CCOP(=S)(OCC)SCn1c(=O)oc2cc(Cl)ccc21 [Phosalone]	-0.311	
COP(=S)(OC)SCN1C(=O)c2ccccc2C1=O [Phosmet]	0.5339	
CCCCOCCOCCOCc1cc2c(cc1CCC)OCO2 [Piperonyl butoxide]	0.8015	
CCCN(CCOc1c(Cl)cc(Cl)cc1Cl)C(=O)n1ccnc1 [Prochloraz]	-0.384	
CSc1nc(NC(C)C)nc(NC(C)C)n1 [Prometryn]	0.888	
CCNP(=S)(OC)O/C(C)=C/C(=O)OC(C)C (stereo not shown) [Propetamphos]	0.3484	
CCCC1COC(Cn2cncn2)(c2ccc(Cl)cc2Cl)O1 (stereo not shown) [Propiconazole]	0.9547	
C#CC(C)(C)NC(=O)c1cc(Cl)cc(Cl)c1 [Propyzamide]	0.363	
COC(=O)N(OC)c1ccccc1COc1ccn(-c2ccc(Cl)cc2)n1 [Pyraclostrobin]	0.2248	
O=C(c1ccc(OCCN2CCCCC2)cc1)c1c(-c2ccc(O)cc2)sc2cc(O)ccc12 [Raloxifene hydrochloride]	0.811	
COC(=O)[C@H]1[C@H]2C[C@@H]3c4[nH]c5cc(OC)ccc5c4CCN3C[C@H]2C[C@@H](OC(=O)c2cc(OC)c(OC)c(OC)c2)[C@@H]1OC [Reserpine]	-0.938	
C=C(C)[C@H]1Cc2c(ccc3c2O[C@@H]2COc4cc(OC)c(OC)cc4[C@@H]2C3=O)O1 [Rotenone]	0.8835	
CCNc1nc(Cl)nc(NCC)n1 [Simazine]	0.05448	
c1ccc2[nH]c(-c3cscn3)nc2c1 [Thiabendazole]	0.674	
CS/C(C)=N\OC(=O)N(C)SN(C)C(=O)O/N=C(\C)SC [Thiodicarb]	0.9955	
CC(C)(C)C(=O)C(Oc1ccc(Cl)cc1)n1cncn1 (stereo not shown) [Triadimefon]	0.3192	
CCCOC/C(=N\c1ccc(Cl)cc1C(F)(F)F)n1ccnc1 [Triflumizole]	0.6164	
CC1(C)CCC(=Cc2ccc(Cl)cc2)C1(O)Cn1cncn1 (stereo not shown) [Triticonazole]	-0.101	
c1ccc(C(O[C@@H]2CCCN(CCc3ccc4c(c3)OCO4)C2)c2ccccc2)cc1 [Zamifenacin]		AC50 (human CYP1A1; NVS_ADME_hCYP1A1, values appear to be log10, ref ToxCast): 0.759
CC1=C(/C=C/C(C)=C/C=C/C(C)=C/C(=O)O)C(C)(C)CCC1 [all-trans-Retinoic acid]		AC50 (human CYP1A1; ToxCast NVS_ADME_hCYP1A1, NA = no AC50, ref ToxCast): 0.1194
Chlorpyrifos oxon	0.9288	
